Patent US20240026554A1, “ANTIOXIDANT CULTURE METHOD AND ANTIOXIDANT AUXILIARY EQUIPMENT” (National Pingtung University of Science and Technology, priority 2022, published 2024)
Read-outs that look alike come from different tables or passages of the source.

Tests used:
[1] = tested on: BHK21 cells infected with bovine epidemic fever virus; settings: 24 hours after virus infection, hydrogen group vs hydrogen-free group
Procedure: (§1) By adding H2O2 at concentrations of 0 μM, 4 μM, 10 μM, and 20 μM, the BHK-21 cells (1×10^5/test) in the experimental group and in the control group were induced to undergo oxidation reaction. H2DCFDA was modified by cellular esterases to form a non-fluorescent H2DCF after adding H2DCFDA cell-permeant fluorescence probe.
(§2) 0.01 MOI bovine epidemic fever virus liquid (virus strain Tn88128 , References: Hsieh, Y -C.; Wang, S. -Y; Lee, Y -F.; Chen, S. -H.; Mak, P. O. T.; Chu, C. -Y. DNA sequence analysis of glycoprotein G gene of bovine ephemeral fever virus and development of a double oil emulsion vaccine against bovine ephemeral fever. J. Vet. Med. Sci. 2006, 68, 543-548) was used for infecting two groups of cells and the virus was cultured until the eighth day (day 8), the voltage was 3-5V, and the current was 0.5 A. The cell number, hydrogen concentration, viral titer and cell senescence molecular marker Cdkn2a (p16) were measured daily.
Two groups of cells infected with virus on part of the carrier sheets in the bioreactor were collected after 24 hours, and H2O2 with concentrations of 0 μM, 4 μM, 10 μM, and 20 μM was added to induce intracellular oxidation reaction, and the ROS fold changes were evaluated by the method of 2.3 in Example 2.

BHK-21 cells = settings: H2O2 0, 4, 10, 20 μM; days 4, 5 and 6; hydrogen group vs hydrogen-free group
Procedure: The cells were divided into two groups to analyze the antioxidant effect. […] Following Example 1, when the antioxidant auxiliary equipment was turned on the second day (day 2), hydrogen gas was supplied at the frequency of turning on the current for 15 minutes per hour, the voltage was 3-5V, the constant current was 0.5 A, and the theoretical hydrogen production was about 466×10^−5 moles per hour. On the third day, the frequency was adjusted to turn on for 15 minutes and turn off for 15 minutes to continuously supply hydrogen gas until the end of the experiment. The voltage was 3˜5V, the constant current was 0.5 A, and the theoretical hydrogen production was about 933×10^−5 moles per hour. The culture medium was replaced on the third day, and the cells were cultured until the eighth day. Cell number, hydrogen concentrations, and reactive oxygen species (ROS) tolerance responses were measured daily.
as §1

[2] = tested on: BHK21 cells infected with bovine epidemic fever virus; settings: 24 hours after virus infection; experimental group vs control group
Procedure: (§3) On the second day, the antioxidant auxiliary equipment was started, and hydrogen gas was supplied at the frequency of turning on the current for 15 minutes per hour. On the third day, the frequency of the current was adjusted to the frequency of turning on the current for 15 minutes and turning off the current for 15 minutes. 0.01 MOI bovine epidemic fever virus liquid (virus strain Tn88128 , References: Hsieh, Y -C.; Wang, S. -Y; Lee, Y -F.; Chen, S. -H.; Mak, P. O. T.; Chu, C. -Y. DNA sequence analysis of glycoprotein G gene of bovine ephemeral fever virus and development of a double oil emulsion vaccine against bovine ephemeral fever. J. Vet. Med. Sci. 2006, 68, 543-548) was used for infecting two groups of cells and the virus was cultured until the eighth day (day 8), the voltage was 3-5V, and the current was 0.5 A. The cell number, hydrogen concentration, viral titer and cell senescence molecular marker Cdkn2a (p16) were measured daily.
After virus infection, the cells on the carrier sheet in the bioreactors of the experimental group and the control group were collected every day, 1 ml of CVD was added, and the number of cells was calculated on that day. The formula for calculating the cell death rate is [(total number of cells on the previous day)−(total number of cells on that day)]/(total number of cells on the previous day)*100%.

Cdkn2a (p16) = settings: after hydrogen supply, on the third day; experimental vs control group
Procedure: as §3
The expression level of the cellular senescence molecule Cdkn2a (p16) is an indicator of senescent cells. […]

[3] = tested on: hamster kidney cells (BHK21); settings: bioreactor with hydrogen vs without hydrogen, hydrogen supplied from day 2, culture to day 8
Procedure: The hamster kidney cells were incubated at 37° C. in an incubator with 5.0% CO2 using MEM culture medium (Invitrogen, Gibco Co. Ltd., New York, USA, with 10% FBS). The hamster kidney cells were incubated in a cell culture flask (175T Flask) for 3 days, and then placed in a roller bottle for expanded culture for 3 days. At the beginning of the experiment, the cells were first transferred to a tidal bioreactor (Bellocell, Taiwan) with a working volume of 500 ml of culture medium for 2 days to adapt to the environment in which the hamster kidney cells could grow to a saturated number of about 3×10^9/bottle. The electrolysis-based hydrogen generator was started on day 2 for antioxidant cell culture to regulate cellular oxidative stress.
The cells were divided into two groups to analyze the antioxidant effect. […] Cell number, hydrogen concentrations, and reactive oxygen species (ROS) tolerance responses were measured daily.
The biological carriers in the bioreactors of the experimental group and the control group were collected daily, 1 ml of Crystal Violet Dye (CVD) cell counting dye was added, and the number of cells was counted and recorded using an inverted microscope.

[4] = tested on: bovine epidemic fever virus (strain Tn88128); settings: 24 hours after virus infection (the 4th day), 0.01 MOI
Procedure: as §2
After the virus infection, the virus tier in the virus liquid was measured by the TCID50 detection method after collecting the virus liquid in the bioreactors of the experimental group and the control group every day. The virus liquid was serially diluted 10-fold with MEM to 1/10^10th of original concentration, and then inoculated into a 96-well cell culture plate at 100 μl/well (100 μl of cell fluid was already added to each well, containing 2×10^4 BHK21 cells), the BHK21 cells were cultured in a 5% CO2 incubator at 37° C. for 3 days. After cytopathic effect (CPE) was observed and recorded, TCID50 was calculated using the Reed-Muench method.

## [HH] [molecular hydrogen]
[1]; H2O2 10 μM
  ROS fold change: significantly reduced the ROS fold change
[1]; H2O2 20 μM
  ROS fold change: significantly reduced the ROS fold change
BHK-21 cells
  ROS fold change: significantly demonstrated reduced ROS fold change
[2]
  cell consumption rate (cell death rate): greater than that of the control group
Cdkn2a (p16)
  fold change of gene expression of senescence molecule Cdkn2a (p16): decreased significantly
[3]
  cell growth pattern / damage to cells: will not cause damage to cells
[4]
  virus yield relative to hydrogen-free group: 16 times
